row,SMILES,melting point
1,CC(Oc1ccc2nc(NC(=O)NCCN3CCC(Cc4ccccc4)CC3)sc2c1)c1c(Cl)ccc(F)c1Cl (stereo not given),133 to 139 °C
2,Cn1nc(N)nc1NCCCCOc1cccc(CN2CCCCC2)c1,82 to 82.5 °C
3,COC(=O)C(CCCCN1C(=O)c2ccccc2C1=O)C(=O)OC,55 to 58 °C
4,N=C(N)NCCCCOc1ccc2c(c1)CC(CCC(=O)O)C(=O)N2 (stereo not given),152 to 155 °C
5,CCN1OCCC(=Cc2cc(C(C)(C)C)c(O)c(C(C)(C)C)c2)C1=O,166 to 167 °C
6,CCc1c(N)c(C(N)=O)nn1CC1CC1,143 to 145 °C
7,C=C1C(=C)C2OC1c1cc3c(OC)ccc(OC)c3cc12,205 to 206 °C
8,O=S(=O)(/C=C/c1ccccc1)Nc1ccc(Cl)cc1,107 to 109 °C
9,C=C1C(=O)NC(=O)N1c1cccc(Cl)c1Cl,201 to 203 °C
10,COc1cc2c(c(OC)c1)C1CCC3(C)C(OC(C)=O)CCC3C1CC2 (stereo not given),131 to 134 °C
11,Cc1c[nH]c2c1C(=O)CC(c1ccccc1Cl)C2 (stereo not given),201 to 209 °C
12,COc1nc(NC(=O)NS(=O)(=O)c2c(C)cccc2OC)nc(OC)n1,163 °C
13,O=C(Nc1cc(Cl)cc(Cl)c1)c1ccccc1O,218 to 219 °C
14,Cn1cnc2cc(NC(=O)c3cc4cc(F)ncc4n3Cc3cccc(F)c3)ccc21,279 to 281 °C
15,CCOC(=O)Cc1cnc(NS(C)(=O)=O)s1,153 to 155 °C
16,Cc1cc(-c2nnc(C(C)(C)C)o2)ccc1N=CN(C)C,79 to 80 °C
17,Cn1nc(NC(=O)Cc2ccccc2)c(-c2ccncc2)c1-c1ccc(F)cc1,158 to 160 °C
18,COc1cccc(C(=C/C=C/C(=O)NCCCCCCc2cccnc2)c2cccc(OC)c2)c1,66 to 70 °C
19,COC(=O)CCc1c[nH]cn1,105 to 108 °C
20,O=C(c1cnc(N2CCCC2)c(OCC2CCCC2)n1)N1CCCCC1,61 to 62 °C
21,COc1cc(N)ccc1S(=O)(=O)Nc1ccccc1C,189 to 191 °C
22,O=c1cc(-c2cc(F)c(O)c(F)c2)oc2ccccc12,275 to 276 °C
23,O=C(N[C@@H](Cc1c[nH]c2ccccc12)C(=O)O)c1ccccc1,84 to 86 °C
24,O=C(O)c1cccnc1Cc1ccccc1,180 to 182 °C
25,CCC(C)SC1=C(C#N)C(c2ccccc2)(c2ccccc2)C(=O)N1 (stereo not given),155 to 156 °C

row,SMILES,melting point
1,CC(C)(Oc1ccc(C(=O)c2ccc(Cl)cc2)cc1)C(=O)NCC(=O)O,144 to 146 °C
2,CCN(CCCN1CCN(c2ccccc2OC)CC1)C1CCc2ncsc2C1 (stereo not given),64 °C
3,CCc1cc(C(=O)c2ccccc2Cl)c(-n2cnnc2CNS(=O)(=O)c2ccc3ccccc3c2)s1,165 to 167 °C
4,CC(Oc1cccnc1)C(=O)Nc1ccc(C(=O)Nc2ccccc2N)cc1 (stereo not given),193 to 196 °C
5,O=C(O)c1ccc(-c2cc(=O)n(-c3ccccc3)s2)cc1,260 to 261 °C
6,CC[C@H](C)[C@H](OCc1ccccc1)[C@H]1[C@H]([N+](=O)[O-])[C@H](C2CCCCC2)N[C@@H]1C(=O)O,194 to 196 °C
7,CC1OC(=O)C(c2cccc(C(F)(F)F)c2)=C1O (stereo not given),175 °C
8,COC(=O)c1ccc2c(=O)n(CC(C)C)c(CNC(=O)OC(C)(C)C)c(-c3ccccc3F)c2c1,180 to 181 °C
9,CCOC(=O)C(OC)C(=O)Nc1cccc(Cl)c1 (stereo not given),43.5 to 46.5 °C
10,COc1c(-c2ccc3cc(NS(C)(=O)=O)ccc3c2)cc(-n2ccc(=O)[nH]c2=O)cc1-c1ccc(C)o1,174 to 178 °C
11,Cc1sc2cc3ccccc3c(-c3ccc(O)c(C4CCCC4)c3)c2c1C,156 to 158 °C
12,CCCCOCCOc1ccc(-c2ccc3c(c2)C=C(C(=O)Nc2ccc(/C(Cc4nccn4CCC)=N/OC)cc2)CCN3CC(C)C)cc1,159 to 161 °C
13,CCc1ncc(CO)c(NCc2ccc(-c3ccccc3-c3nnnn3C(c3ccccc3)(c3ccccc3)c3ccccc3)cc2)n1,118 to 120 °C
14,COc1ccc(C2=CCN(Cc3n[nH]c4c(Cl)cccc34)CC2)cc1,201 to 203 °C
15,CCCCc1nccn1-c1nc(Cl)nc2nc[nH]c12,247 to 248 °C
16,N#Cc1c(Cl)c2cccnc2n(Cc2ccccc2)c1=O,188 °C
17,CS(=O)(=O)c1ccccc1OCCF,67 to 69 °C
18,CCOC(=O)c1ccc(Cn2cnc3cccnc32)cc1,104 to 106 °C
19,COc1c(C)cnc(CS(=O)c2nc3cc(C(F)(F)F)ccc3[nH]2)c1C (stereo not given),163 °C
20,CN1CC[C@@H](c2c(O)cc(O)c3c(=O)cc(-c4ccccc4I)oc23)[C@@H]1CO,233 to 235 °C
21,OCc1c(F)c(F)c(Br)c(F)c1F,60 to 62 °C
22,CC1(C)CC(=O)C=C(OC(=O)c2cccc3nnsc23)C1,131 to 133 °C
23,O=P(O)(O)C(O)(CCc1ccc(Cl)cc1)P(=O)(O)O,201 °C
24,CC1(C)C(=O)C(c2ccc(F)c(F)c2)=C1c1ccc(S(C)(=O)=O)cc1,118 °C
25,CCC12CCC3=C(CCc4cc(OC)ccc43)C1CCC21OCCO1 (stereo not given),135 to 137 °C

# From a melting point compilation (Tetko et al.; mined from patent text by program, amines drawn as free bases though some values may be those of a salt)
